Measured values from PMC9775191, “A Subset Screen of the Compounds Australia Scaffold Library Identifies 7-Acylaminodibenzoxazepinones as Potent and Selective Hits for Anti-Giardia Drug Discovery” (Biomedicines, 2022).

Test system: G. duodenalis BRIS/91/HEPU/1279
Test: Primary Giardia screen at 10 µM (live-cell imaging, automated counting)
Type: cell-based, Giardia duodenalis
Details: for % Inhibition n=1 48h / % Inhibition n=1 24h: first singlicate assay; for % Inhibition n=2 24h / % Inhibition n=2 48h: re-assessment
Procedure, shortened: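 Compound added to 10 μM final in medium with 0.2% DMSO, one well each; plates then held in sealed chambers at 3% O2, 5% CO2 in N2; growth imaged and counted automatically at 24 and 48 h; values normalised to vehicle wells minus media blank.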

CCOc1ccc(-c2nc3sc4cc(C)ccc4n3c2NCCOC)cc1 [SN00795352]
% Inhibition n=1 48h: 0.0%

Cc1cc(C(F)(F)F)nn1CC(=O)Nc1cc(Oc2cccnc2)cc([N+](=O)[O-])c1 [SN00783379]
% Inhibition n=1 48h: 22.1%

CNC(=O)N1CCC(C2CCN(C(=O)c3ccncc3)CC2)C1 (stereo not drawn) [SN00801593]
% Inhibition n=1 48h: 4.5%

CCOC(=O)c1cccc(Nc2ncccc2S(N)(=O)=O)c1 [SN00799296]
Average % Inhibition 24h: 14.5% | % Inhibition n=1 24h: 29.1% | % Inhibition n=2 24h: 0.0% | Average % Inhibition 48h: 35.4% | % Inhibition n=1 48h: 70.8% | % Inhibition n=2 48h: 0.0%

CCOC(=O)c1cccc(NC(=O)c2cnc(C)nc2C)c1 [SN00790942]
% Inhibition n=1 48h: 0.0%

CC(C)n1ncc2c(C(=O)N3CCC(NS(=O)(=O)c4cccs4)CC3)cc(C3CC3)nc21 [SN00770479]
% Inhibition n=1 48h: 0.0%

FC(F)Oc1ccc(-c2csc(Cc3nnc4n3CCCCC4)n2)cc1 [SN00776417]
Average % Inhibition 24h: 12.3% | % Inhibition n=1 24h: 22.0% | % Inhibition n=2 24h: 2.6% | Average % Inhibition 48h: 19.6% | % Inhibition n=1 48h: 34.2% | % Inhibition n=2 48h: 5.0%

CCN(CC)C(=O)c1cc(-c2cccs2)nc2cc(C)c(C)cc12 [SN00802800]
% Inhibition n=1 48h: 16.9%

CCn1cc(C(=O)Nc2ccc(F)cc2)c(S(=O)(=O)N2CCC(C)CC2)n1 [SN00798700]
% Inhibition n=1 48h: 0.0%

Cc1noc(CN2C(=O)NC(C)(c3ccccc3)C2=O)n1 (stereo not drawn) [SN00774045]
% Inhibition n=1 48h: 0.0%

O=c1n(Cc2cccc(Br)c2)nc2c(S(=O)(=O)N3CCOCC3)cccn12 [SN00798020]
% Inhibition n=1 48h: 0.0%

CC(=O)N1CCCc2cc(S(=O)(=O)N3CCN(c4ccc(F)cc4)CC3)ccc21 [SN00793330]
% Inhibition n=1 48h: 0.2%

Clc1ccc(Nc2nc3ccccc3n3nnnc23)cc1 [SN00784679]
% Inhibition n=1 48h: 4.0%

CN1C(=O)c2cc(NC(=O)c3ccc4c(c3)OCO4)ccc2N2CCN=C12 [SN00784190]
% Inhibition n=1 48h: 31.6%

CC12CC(c3ccccc3O1)N(C(=O)c1cccc(F)c1)C(=O)N2c1ccccc1 (stereo not drawn) [SN00784677]
% Inhibition n=1 48h: 0.0%

CC(=O)N1CCc2cc(C)c(S(=O)(=O)NC3CC3)cc21 [SN00798831]
% Inhibition n=1 48h: 4.3%

CCc1nc(-c2cc(S(=O)(=O)N(C)c3cccc(C)c3)c(C)s2)no1 [SN00789104]
Average % Inhibition 24h: 14.2% | % Inhibition n=1 24h: 28.4% | % Inhibition n=2 24h: 0.0% | Average % Inhibition 48h: 30.8% | % Inhibition n=1 48h: 48.8% | % Inhibition n=2 48h: 12.8%

COc1ccc(-c2c(C(=O)Nc3cccc(Cl)c3)nn3c(C)cc(=O)[nH]c23)cc1 [SN00795279]
% Inhibition n=1 48h: 7.0%

O=C(NC(c1ccccc1)C1CC1)c1ccc2c(c1)S(=O)(=O)Nc1ncnn1-2 (stereo not drawn) [SN00773273]
% Inhibition n=1 48h: 0.0%

CCCNC(=O)N1Cc2c(sc3c2CCCC3)-n2cccc2C1CC (stereo not drawn) [SN00791532]
% Inhibition n=1 48h: 15.0%

Cc1cc2n(n1)CCCN2CC(=O)N1CCN(c2ccc(Cl)cc2)CC1 [SN00791741]
% Inhibition n=1 48h: 2.4%

Cn1c(=O)n(CC(=O)C(C)(C)C)c(=O)c2c1nc1oc(C(C)(C)C)cn12 [SN00779257]
% Inhibition n=1 48h: 18.6%

CCOC(=O)C1CCN(C(=O)c2ccc3c(c2)C(=O)N(c2ccccc2C)C3=O)CC1 [SN00774484]
% Inhibition n=1 48h: 0.0%

Cc1ccc(S(=O)(=O)[C@H]2CS(=O)(=O)C[C@@H]2N2CCC(C(N)=O)CC2)cc1 (relative stereo) [SN00786616]
% Inhibition n=1 48h: 0.0%

Cc1nccc2[nH]c(=O)c(C(=O)NCCCN(C)C3CCCCC3)cc12 [SN00794671]
% Inhibition n=1 48h: 0.0%

CNC(=O)N1C[C@@H](CN(C)C)[C@@H](C2CCN(CCC(C)C)CC2)C1 (relative stereo) [SN00801505]
% Inhibition n=1 48h: 0.0%

CC1(C)Cc2nc3[nH]c(=O)n(Cc4ccco4)c(=O)c3cc2CO1 [SN00786536]
% Inhibition n=1 48h: 7.3%

Cc1sc(C(=O)N2CCCC2)c2ncnc(NCc3cccc(Cl)c3)c12 [SN00803183]
Average % Inhibition 24h: 15.6% | % Inhibition n=1 24h: 29.7% | % Inhibition n=2 24h: 1.5% | Average % Inhibition 48h: 27.6% | % Inhibition n=1 48h: 47.9% | % Inhibition n=2 48h: 7.3%

Cc1ccc(NC(=O)Cc2nc(-c3ccc4c(c3)CC(=O)N4C)cs2)cc1 [SN00777029]
% Inhibition n=1 48h: 10.0%

Cc1ccccc1NC(=O)c1nc(S(C)(=O)=O)ncc1N(Cc1ccco1)Cc1sccc1C [SN00786086]
% Inhibition n=1 48h: 11.7%

COc1ccc(Cn2cccc2C2=NC(C)(C)CO2)cc1 [SN00784853]
% Inhibition n=1 48h: 19.2%

COc1ccc(C2=Nc3ccccc3N(Cc3cccc(F)c3)C(=O)C2)cc1 [SN00791806]
Average % Inhibition 24h: 8.7% | % Inhibition n=1 24h: 17.4% | % Inhibition n=2 24h: 0.0% | Average % Inhibition 48h: 30.2% | % Inhibition n=1 48h: 50.8% | % Inhibition n=2 48h: 9.6%

Cc1c(C(=O)N2CCCCC2)c(S(=O)(=O)N2CCN(c3ccccn3)CC2)c(C)n1C [SN00791445]
% Inhibition n=1 48h: 0.0%

CCCNC(=O)c1cc(-c2ccc(F)cc2)on1 [SN00784460]
% Inhibition n=1 48h: 0.0%

CN(C)[C@@H]1CN(Cc2ccc3[nH]ccc3c2)CC[C@H]1CO [SN00801277]
% Inhibition n=1 48h: 6.2%

Cc1ccc(N2CCCN(C(=O)CN(C)C3CC3)CC2)nn1 [SN00772050]
% Inhibition n=1 48h: 11.9%

Cc1ccccc1S(=O)(=O)N1CCC2(CC1)Nc1ccc(Cl)cc1-n1cccc12 [SN00789223]
% Inhibition n=1 48h: 20.1%

CCCC(=O)Nc1cc(F)c2nc(N3CCCCC3)ccc2c1 [SN00795955]
% Inhibition n=1 48h: 0.0%

CC1CCC(NC(=O)c2ccc(-c3noc(C4CCN(C(=O)c5ccccc5)CC4)n3)cc2)CC1 (stereo not drawn) [SN00797379]
% Inhibition n=1 48h: 0.0%

Cc1ccc(NC(=O)Cn2nnc(-c3nc(-c4ccncc4)no3)c2N)cc1 [SN00788097]
% Inhibition n=1 48h: 7.5%

Cc1nc(N2CCCCC2)cc(N2CCN(C(=O)c3cccc(F)c3)CC2)n1 [SN00786431]
% Inhibition n=1 48h: 7.0%

O=c1c2c(ncn2Cc2ccc(F)cc2)n(-c2ccccc2)c(=O)n1C1CCCC1 [SN00802718]
% Inhibition n=1 48h: 6.1%

Cc1ccc(CNC(=O)c2ccc(-n3cnc(NC(=O)C(C)C)c3)cc2)cc1 [SN00796570]
% Inhibition n=1 48h: 29.7%

O=c1ccccn1Cc1nnc(-c2ccc(Br)o2)o1 [SN00773952]
% Inhibition n=1 48h: 8.9%

CCCNC(=O)c1sc(-n2nc(C)c(Cl)c2C)nc1C [SN00786172]
Average % Inhibition 24h: 7.3% | % Inhibition n=1 24h: 14.5% | % Inhibition n=2 24h: 0.0% | Average % Inhibition 48h: 27.0% | % Inhibition n=1 48h: 52.5% | % Inhibition n=2 48h: 1.5%

Cc1ccc(NC(=O)Nc2ccc3c(c2)CCN3S(=O)(=O)c2ccccc2)cc1 [SN00796277]
% Inhibition n=1 48h: 10.0%

c1ccc(-c2cc(CN3CCOC(Cn4cncn4)C3)on2)cc1 (stereo not drawn) [SN00778747]
% Inhibition n=1 48h: 6.8%

O=S(=O)(Cc1ccc(Cl)cc1)c1nc2ccccc2nc1N1CCC2(CC1)OCCO2 [SN00794883]
% Inhibition n=1 48h: 15.2%

COCC(=O)N1CCC(Oc2ncccc2C(=O)N(C)C)CC1 [SN00800001]
% Inhibition n=1 48h: 4.8%

Cc1ccc(S(=O)(=O)Nc2cc3c(cc2NCc2ccccc2)n(C)c(=O)n3C)cc1 [SN00784759]
% Inhibition n=1 48h: 14.3%

Cc1cccc(C)c1NC(=O)Cn1c(=O)n(CCc2c[nH]c3ccccc23)c(=O)c2cccnc21 [SN00785456]
% Inhibition n=1 48h: 0.5%

CC(=O)Nc1cc(C(=O)NCCCN2CCC(C)CC2)ccc1S(=O)(=O)c1ccc(Cl)cc1 [SN00794609]
% Inhibition n=1 48h: 23.9%

CCn1nnc2cc(C(=O)N(C)CC(=O)NCc3cccc(C)c3)ccc21 [SN00789328]
% Inhibition n=1 48h: 14.4%

Cc1sc(-n2cccc2)c(C(=O)NC2CCCCCC2)c1C [SN00776382]
% Inhibition n=1 48h: 0.0%

CC1(C(=O)NC2CCCCC2)Cn2c(cc3ccccc32)C(=O)N1Cc1ccco1 (stereo not drawn) [SN00787436]
% Inhibition n=1 48h: 0.0%

Cc1csc(C2(NC(=O)Nc3ccc4c(c3)CCO4)CCC2)n1 [SN00772607]
% Inhibition n=1 48h: 20.7%

CCN(c1ccc(OC)cc1)S(=O)(=O)c1csc(C(=O)N(C)C)c1 [SN00791689]
% Inhibition n=1 48h: 2.7%

Cc1nc(-n2nc(C)c(Cc3ccccc3Cl)c2C)sc1C(=O)NC(C)C [SN00786185]
% Inhibition n=1 48h: 0.0%

CCOC(=O)N1CCN(C(=O)c2nn(-c3ccccc3)c3c2CCC3)CC1 [SN00778954]
Average % Inhibition 24h: 6.2% | % Inhibition n=1 24h: 12.5% | % Inhibition n=2 24h: 0.0% | Average % Inhibition 48h: 36.1% | % Inhibition n=1 48h: 38.8% | % Inhibition n=2 48h: 33.3%

C/C(=C/C(=O)N1CCN(C(=O)c2ccc3[nH]cnc3c2)CC1)C1CC1 [SN00774586]
% Inhibition n=1 48h: 5.9%

Cc1nn(Cc2csc(-c3ccsc3)n2)c(C)c1S(=O)(=O)N1CCc2ccccc21 [SN00774089]
% Inhibition n=1 48h: 7.1%

CC1CCN(c2nc(C(=O)NCCc3ccncc3)nc3c2cnn3C)CC1 [SN00800416]
% Inhibition n=1 48h: 9.4%

CCN1CCN(c2ccc3nnc(C(C)C)n3n2)CC1 [SN00803240]
% Inhibition n=1 48h: 0.4%

CC(=O)N1CCCN(C(=O)c2cc(C3CC3)[nH]n2)CC1 [SN00778148]
% Inhibition n=1 48h: 1.1%

Nc1nc(N2CCN(C(=O)c3ccco3)CC2)ncc1C(=O)Nc1ccccc1 [SN00798744]
% Inhibition n=1 48h: 0.0%

Cc1cccc(NC(=O)C2CCCN(c3c([N+](=O)[O-])c(C)nn3C)C2)n1 (stereo not drawn) [SN00775639]
% Inhibition n=1 48h: 0.0%

CCNC(=O)c1c(C)oc2c1CNCC2 [SN00802246]
% Inhibition n=1 48h: 10.3%

COc1ccc(-c2nc(Cn3nnc(C(=O)Nc4ccc(F)cc4F)c3N)c(C)o2)c(OC)c1 [SN00797364]
% Inhibition n=1 48h: 3.5%

Cc1ccc(NC(=O)c2ccc(=O)n(CCN3CCOCC3)n2)cc1 [SN00793573]
% Inhibition n=1 48h: 2.3%

O=C(c1cccc(Br)c1)N1CCc2nc(-c3ccc(F)cc3)ncc2C1 [SN00799013]
% Inhibition n=1 48h: 13.8%
